Reference: ChEMBL document CHEMBL3627608, “Crystal structures of human RIP2 kinase catalytic domain complexed with ATP-competitive inhibitors: Foundations for understanding inhibitor selectivity” (Bioorg Med Chem, 2015)

How the values were obtained:
[1] = target: T1, Inhibitor of nuclear factor kappa-B kinase subunit beta (Homo sapiens) (UniProt O14920); assay: Inhibition of IKKbeta (unknown origin) at 10 uM after 120 mins P33 radiolabeled kinase activity assay
T1 sequence (whole entry): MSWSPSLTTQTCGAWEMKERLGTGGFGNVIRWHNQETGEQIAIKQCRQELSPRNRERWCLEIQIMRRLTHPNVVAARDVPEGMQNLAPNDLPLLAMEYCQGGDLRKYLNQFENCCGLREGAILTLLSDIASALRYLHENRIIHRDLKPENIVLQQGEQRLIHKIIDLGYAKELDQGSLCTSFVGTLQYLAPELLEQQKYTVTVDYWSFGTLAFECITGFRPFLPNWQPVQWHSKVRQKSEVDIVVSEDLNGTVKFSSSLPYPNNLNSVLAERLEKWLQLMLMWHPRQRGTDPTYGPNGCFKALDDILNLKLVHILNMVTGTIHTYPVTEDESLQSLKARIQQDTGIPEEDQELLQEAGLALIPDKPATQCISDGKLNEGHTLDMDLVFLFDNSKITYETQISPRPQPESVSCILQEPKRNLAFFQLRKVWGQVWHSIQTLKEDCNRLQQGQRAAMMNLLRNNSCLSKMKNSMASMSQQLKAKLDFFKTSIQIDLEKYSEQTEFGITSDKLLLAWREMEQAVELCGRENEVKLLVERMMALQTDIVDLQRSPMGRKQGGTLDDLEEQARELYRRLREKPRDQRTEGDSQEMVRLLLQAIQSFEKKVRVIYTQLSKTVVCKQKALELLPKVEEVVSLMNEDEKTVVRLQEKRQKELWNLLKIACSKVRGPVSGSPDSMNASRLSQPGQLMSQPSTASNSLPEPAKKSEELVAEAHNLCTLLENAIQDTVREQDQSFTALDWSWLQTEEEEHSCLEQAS

[2] = target: MAP kinase-interacting serine/threonine-protein kinase 2 (Homo sapiens) (UniProt Q9HBH9); assay: Inhibition of MNK2 (unknown origin) at 10 uM after 120 mins P33 radiolabeled kinase activity assay
[3] = target: Activin receptor type-1-like (Homo sapiens) (UniProt P37023); assay: Inhibition of ALK1 (unknown origin) at 10 uM after 120 mins P33 radiolabeled kinase activity assay
[4] = target: T2, NUAK family SNF1-like kinase 1 (Homo sapiens) (UniProt O60285); assay: Inhibition of ARK5 (unknown origin) at 10 uM after 120 mins P33 radiolabeled kinase activity assay
T2 sequence (whole entry): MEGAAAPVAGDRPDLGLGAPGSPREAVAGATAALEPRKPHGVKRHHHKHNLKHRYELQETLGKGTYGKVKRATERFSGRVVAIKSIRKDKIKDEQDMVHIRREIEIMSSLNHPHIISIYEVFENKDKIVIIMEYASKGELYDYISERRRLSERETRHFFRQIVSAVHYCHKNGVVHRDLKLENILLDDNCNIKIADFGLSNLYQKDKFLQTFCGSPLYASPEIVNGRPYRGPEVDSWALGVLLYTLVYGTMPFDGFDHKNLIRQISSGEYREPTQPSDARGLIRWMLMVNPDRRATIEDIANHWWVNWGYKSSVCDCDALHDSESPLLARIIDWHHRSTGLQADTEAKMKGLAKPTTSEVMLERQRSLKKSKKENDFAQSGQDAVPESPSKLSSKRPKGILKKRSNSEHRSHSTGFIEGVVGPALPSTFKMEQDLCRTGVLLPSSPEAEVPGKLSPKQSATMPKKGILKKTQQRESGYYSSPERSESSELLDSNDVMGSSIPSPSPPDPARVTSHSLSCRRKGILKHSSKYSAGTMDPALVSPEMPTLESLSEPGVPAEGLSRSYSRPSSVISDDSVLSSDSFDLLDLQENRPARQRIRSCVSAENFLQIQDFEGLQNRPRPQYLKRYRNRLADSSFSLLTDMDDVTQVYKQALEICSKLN

[5] = target: Proto-oncogene tyrosine-protein kinase receptor Ret (Homo sapiens) (UniProt P07949); assay: Inhibition of RET (unknown origin) at 10 uM after 120 mins P33 radiolabeled kinase activity assay
[6] = target: STE20/SPS1-related proline-alanine-rich protein kinase (Homo sapiens) (UniProt Q9UEW8); assay: Inhibition of STK39 (unknown origin) at 10 uM after 120 mins P33 radiolabeled kinase activity assay
[7] = target: T3, Mitogen-activated protein kinase kinase kinase kinase 3 (Homo sapiens) (UniProt Q8IVH8); assay: Inhibition of GLK (unknown origin) at 10 uM after 120 mins P33 radiolabeled kinase activity assay
T3 sequence (whole entry): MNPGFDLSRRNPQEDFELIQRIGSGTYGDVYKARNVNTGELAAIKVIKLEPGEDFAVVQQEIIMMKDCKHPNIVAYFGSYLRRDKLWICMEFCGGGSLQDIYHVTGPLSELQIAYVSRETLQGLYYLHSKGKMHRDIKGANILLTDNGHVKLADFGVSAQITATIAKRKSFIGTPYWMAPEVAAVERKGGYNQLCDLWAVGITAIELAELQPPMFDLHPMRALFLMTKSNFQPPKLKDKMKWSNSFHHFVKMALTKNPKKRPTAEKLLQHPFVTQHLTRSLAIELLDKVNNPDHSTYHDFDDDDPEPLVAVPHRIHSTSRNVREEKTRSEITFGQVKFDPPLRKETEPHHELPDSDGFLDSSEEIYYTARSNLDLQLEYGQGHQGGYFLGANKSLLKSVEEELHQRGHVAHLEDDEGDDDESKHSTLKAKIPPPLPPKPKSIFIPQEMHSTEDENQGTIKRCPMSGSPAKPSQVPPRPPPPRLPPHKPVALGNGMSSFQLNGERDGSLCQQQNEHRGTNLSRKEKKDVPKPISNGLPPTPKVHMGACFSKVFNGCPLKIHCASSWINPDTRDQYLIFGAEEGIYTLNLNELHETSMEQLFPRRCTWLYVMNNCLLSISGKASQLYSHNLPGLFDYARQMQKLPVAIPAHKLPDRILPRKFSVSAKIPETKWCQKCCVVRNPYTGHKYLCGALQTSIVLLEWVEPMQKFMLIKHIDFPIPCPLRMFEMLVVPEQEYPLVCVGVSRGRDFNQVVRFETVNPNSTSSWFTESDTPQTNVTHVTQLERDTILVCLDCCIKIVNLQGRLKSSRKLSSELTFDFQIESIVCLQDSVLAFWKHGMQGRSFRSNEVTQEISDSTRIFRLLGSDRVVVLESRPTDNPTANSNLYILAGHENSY

[8] = target: Tyrosine-protein kinase Fgr (Homo sapiens) (UniProt P09769); assay: Inhibition of FGR (unknown origin) at 10 uM after 120 mins P33 radiolabeled kinase activity assay
[9] = target: Cyclin-dependent kinase 5/CDK5 activator 1 (Homo sapiens) (UniProt Q00535+Q15078); assay: Inhibition of CDK5/p35 (unknown origin) at 10 uM after 120 mins P33 radiolabeled kinase activity assay; type: protein-complex assay
Cyclin-dependent kinase 5/CDK5 activator 1 (Homo sapiens), sequence (Q00535 whole entry): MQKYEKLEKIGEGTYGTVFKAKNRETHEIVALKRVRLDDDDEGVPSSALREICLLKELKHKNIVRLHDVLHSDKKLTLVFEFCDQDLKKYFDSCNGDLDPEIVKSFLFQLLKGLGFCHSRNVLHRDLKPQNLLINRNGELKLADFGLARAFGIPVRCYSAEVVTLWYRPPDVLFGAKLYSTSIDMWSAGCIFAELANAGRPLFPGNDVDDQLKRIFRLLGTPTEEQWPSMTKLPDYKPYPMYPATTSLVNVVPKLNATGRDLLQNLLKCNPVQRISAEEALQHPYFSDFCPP
Cyclin-dependent kinase 5/CDK5 activator 1 (Homo sapiens), sequence (Q15078 99-307 partner limits assumed): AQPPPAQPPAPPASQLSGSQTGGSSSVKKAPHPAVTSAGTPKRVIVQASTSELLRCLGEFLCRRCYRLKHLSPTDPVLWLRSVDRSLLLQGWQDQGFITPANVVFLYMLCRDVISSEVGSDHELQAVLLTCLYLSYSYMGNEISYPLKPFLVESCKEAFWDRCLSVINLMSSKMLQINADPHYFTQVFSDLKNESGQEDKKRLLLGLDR

Activin receptor type-1-like (Homo sapiens), sequence (P37023 whole entry): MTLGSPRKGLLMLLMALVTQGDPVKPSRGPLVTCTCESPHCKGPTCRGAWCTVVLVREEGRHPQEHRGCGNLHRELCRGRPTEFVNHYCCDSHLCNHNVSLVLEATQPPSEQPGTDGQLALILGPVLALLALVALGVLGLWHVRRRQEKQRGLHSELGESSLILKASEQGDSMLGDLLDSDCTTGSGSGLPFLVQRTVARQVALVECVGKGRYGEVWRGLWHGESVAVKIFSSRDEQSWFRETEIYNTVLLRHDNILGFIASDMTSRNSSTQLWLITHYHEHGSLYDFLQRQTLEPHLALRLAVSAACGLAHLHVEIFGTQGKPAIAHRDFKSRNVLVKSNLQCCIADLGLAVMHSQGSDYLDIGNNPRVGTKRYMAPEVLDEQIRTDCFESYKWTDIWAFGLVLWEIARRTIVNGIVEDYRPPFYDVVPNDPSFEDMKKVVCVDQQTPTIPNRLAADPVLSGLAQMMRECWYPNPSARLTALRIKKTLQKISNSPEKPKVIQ
Proto-oncogene tyrosine-protein kinase receptor Ret (Homo sapiens), sequence (P07949 whole entry): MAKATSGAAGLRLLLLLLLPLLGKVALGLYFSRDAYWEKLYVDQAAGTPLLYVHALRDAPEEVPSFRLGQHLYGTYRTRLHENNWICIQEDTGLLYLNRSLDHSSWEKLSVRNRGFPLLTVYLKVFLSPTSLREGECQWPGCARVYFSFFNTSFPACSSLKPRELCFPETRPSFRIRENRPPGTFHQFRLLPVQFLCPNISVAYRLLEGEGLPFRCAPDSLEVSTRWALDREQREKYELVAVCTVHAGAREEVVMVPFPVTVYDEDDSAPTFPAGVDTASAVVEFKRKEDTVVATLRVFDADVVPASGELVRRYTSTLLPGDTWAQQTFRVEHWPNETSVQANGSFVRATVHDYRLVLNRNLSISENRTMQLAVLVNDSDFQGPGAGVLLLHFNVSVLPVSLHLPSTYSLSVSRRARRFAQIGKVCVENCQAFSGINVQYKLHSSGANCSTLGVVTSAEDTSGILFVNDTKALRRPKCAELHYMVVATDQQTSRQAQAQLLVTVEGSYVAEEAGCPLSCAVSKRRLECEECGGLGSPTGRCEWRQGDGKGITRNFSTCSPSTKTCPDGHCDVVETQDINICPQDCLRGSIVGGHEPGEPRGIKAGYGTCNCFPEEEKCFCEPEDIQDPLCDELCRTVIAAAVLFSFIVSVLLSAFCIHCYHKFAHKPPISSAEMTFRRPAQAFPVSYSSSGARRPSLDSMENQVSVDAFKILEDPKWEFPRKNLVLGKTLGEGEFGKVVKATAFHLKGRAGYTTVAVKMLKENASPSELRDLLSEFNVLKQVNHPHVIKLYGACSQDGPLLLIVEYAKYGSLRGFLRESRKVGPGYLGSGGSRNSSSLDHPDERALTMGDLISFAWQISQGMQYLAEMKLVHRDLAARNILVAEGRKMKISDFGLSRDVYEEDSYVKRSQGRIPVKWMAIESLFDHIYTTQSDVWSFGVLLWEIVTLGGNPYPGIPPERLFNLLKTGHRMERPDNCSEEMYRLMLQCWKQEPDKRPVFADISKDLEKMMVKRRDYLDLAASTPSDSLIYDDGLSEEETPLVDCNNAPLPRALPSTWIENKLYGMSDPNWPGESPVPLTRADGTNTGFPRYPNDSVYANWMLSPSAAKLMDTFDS
MAP kinase-interacting serine/threonine-protein kinase 2 (Homo sapiens), sequence (Q9HBH9 whole entry, looked up): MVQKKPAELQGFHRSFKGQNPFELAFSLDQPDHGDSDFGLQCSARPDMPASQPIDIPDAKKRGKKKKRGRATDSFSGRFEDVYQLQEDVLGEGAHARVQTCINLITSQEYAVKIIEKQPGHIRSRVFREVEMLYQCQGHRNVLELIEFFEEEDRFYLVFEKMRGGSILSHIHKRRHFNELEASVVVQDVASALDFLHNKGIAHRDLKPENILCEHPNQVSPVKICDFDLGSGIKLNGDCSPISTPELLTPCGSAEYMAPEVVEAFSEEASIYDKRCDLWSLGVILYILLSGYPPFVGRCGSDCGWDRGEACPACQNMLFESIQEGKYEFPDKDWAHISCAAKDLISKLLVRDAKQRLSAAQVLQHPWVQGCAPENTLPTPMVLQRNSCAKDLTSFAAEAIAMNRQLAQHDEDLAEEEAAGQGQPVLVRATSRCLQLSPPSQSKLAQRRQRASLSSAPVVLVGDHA
Tyrosine-protein kinase Fgr (Homo sapiens), sequence (P09769 2-529 limits assumed): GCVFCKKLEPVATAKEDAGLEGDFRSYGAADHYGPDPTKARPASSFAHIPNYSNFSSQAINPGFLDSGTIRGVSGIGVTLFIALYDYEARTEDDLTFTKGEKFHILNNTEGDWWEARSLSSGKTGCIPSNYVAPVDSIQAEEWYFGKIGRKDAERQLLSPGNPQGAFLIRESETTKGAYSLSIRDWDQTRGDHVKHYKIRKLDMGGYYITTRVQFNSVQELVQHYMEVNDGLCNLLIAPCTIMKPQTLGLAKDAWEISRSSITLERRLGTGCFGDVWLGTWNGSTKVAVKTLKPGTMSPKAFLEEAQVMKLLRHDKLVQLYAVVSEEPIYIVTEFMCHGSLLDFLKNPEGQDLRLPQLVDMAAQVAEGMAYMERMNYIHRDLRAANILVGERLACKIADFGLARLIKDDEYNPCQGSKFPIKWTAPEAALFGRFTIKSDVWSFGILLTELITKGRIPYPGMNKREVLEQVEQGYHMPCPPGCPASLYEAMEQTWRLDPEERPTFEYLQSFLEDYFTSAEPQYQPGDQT

Row | inhibition [1] [%] | inhibition [2] [%] | inhibition [3] [%] | inhibition [4] [%] | inhibition [5] [%] | inhibition [6] [%] | inhibition [7] [%] | inhibition [8] [%] | inhibition [9] [%] | Compound
1 | 1.51 | 81.5 | 96.2 | 41.1 | 98 | 28.6 | 56.2 | 100 | 94.7 | CS(=O)(=O)c1cccc(Nc2nccc(-c3sc(N4CCOCC4)nc3-c3cccc(NS(=O)(=O)c4c(F)cccc4F)c3)n2)c1
2 | -5.88 | 2.19 | 28.2 | 7.6 | 36 | 6.77 | 4.53 | 67.5 | 0.14 | COCCNC(=O)c1ccc2c(c1)nc(-c1cnc(-c3ccc(Cl)cc3)[nH]1)n2CCOC
3 | -0.16 | 99.2 | 3.54 | -0.15 | 99.2 | 52.4 | 41.9 | 90.7 | 57.3 | CC(C)(C)c1cc(NC(=O)Nc2ccc(Oc3ccncc3)cc2)no1
